Data: ChEMBL document CHEMBL1201861, “Genomics of Drug Sensitity in Cancer screening data, Wellcome Trust Sanger Institute”

Legend:
Experiment in all cases: cells
NH-12 = assay type: functional, cell-based, Homo sapiens; details: Homo sapiens, NH-12;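 also: growth inhibition of NH-12 cells, read out with a cell viability assay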
Description: SANGER: Inhibition of human NH-12 cell growth in a cell viability assay.

BB65-RCC = assay type: functional, cell-based, Homo sapiens; details: Homo sapiens, BB65-RCC;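 also: growth inhibition of the cell line, measured with a cell viability assay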
Description: SANGER: Inhibition of human BB65-RCC cell growth in a cell viability assay.

L-363 = assay type: functional, cell-based, Homo sapiens; details: Homo sapiens, L-363
Description: SANGER: Inhibition of human L-363 cell growth in a cell viability assay.

RPMI-8866 = assay type: functional, cell-based, Homo sapiens; details: Homo sapiens, RPMI-8866
Description: SANGER: Inhibition of human RPMI-8866 cell growth in a cell viability assay.

RH-1 = assay type: functional, cell-based, Homo sapiens; details: Homo sapiens, RH-1;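 also: growth inhibition of human RH-1 cells, read out with a cell viability assay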
Description: SANGER: Inhibition of human RH-1 cell growth in a cell viability assay.

CTB-1 = assay type: functional, cell-based, Homo sapiens; details: Homo sapiens, CTB-1
Description: SANGER: Inhibition of human CTB-1 cell growth in a cell viability assay.

KARPAS-45 = assay type: functional, cell-based, Homo sapiens; details: Homo sapiens, KARPAS-45;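 also: inhibition of cell line growth, read out through a viability assay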
Description: SANGER: Inhibition of human KARPAS-45 cell growth in a cell viability assay.

GOTO = assay type: functional, cell-based, Homo sapiens; details: Homo sapiens, GOTO;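 also: growth inhibition of GOTO cells, read out by a cell viability assay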
Description: SANGER: Inhibition of human GOTO cell growth in a cell viability assay.

Becker = assay type: functional, cell-based, Homo sapiens; details: Homo sapiens, Becker;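 also: growth inhibition of Becker cells, read out with a cell viability assay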
Description: SANGER: Inhibition of human Becker cell growth in a cell viability assay.

NMC-G1 = assay type: functional, cell-based, Homo sapiens; details: Homo sapiens, NMC-G1;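 also: growth inhibition of the NMC-G1 cell line, measured with a cell viability read-out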
Description: SANGER: Inhibition of human NMC-G1 cell growth in a cell viability assay.

NB12 = assay type: functional, cell-based, Homo sapiens; details: Homo sapiens, NB12;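 also: growth inhibition of human NB12 cells, read out by a cell viability assay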
Description: SANGER: Inhibition of human NB12 cell growth in a cell viability assay.

D-263MG = assay type: functional, cell-based, Homo sapiens; details: Homo sapiens, D-263MG
Description: SANGER: Inhibition of human D-263MG cell growth in a cell viability assay.

LB373-MEL-D = assay type: functional, cell-based, Homo sapiens; details: Homo sapiens, LB373-MEL-D;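 also: growth inhibition of the cell line, read out in a cell viability assay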
Description: SANGER: Inhibition of human LB373-MEL-D cell growth in a cell viability assay.

LU-139 = assay type: functional, cell-based, Homo sapiens; details: Homo sapiens, LU-139
Description: SANGER: Inhibition of human LU-139 cell growth in a cell viability assay.

COLO-684 = assay type: functional, cell-based, Homo sapiens; details: Homo sapiens, COLO-684
Description: SANGER: Inhibition of human COLO-684 cell growth in a cell viability assay.

ML-2 = assay type: functional, cell-based, Homo sapiens; details: Homo sapiens, ML-2;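 also: growth inhibition of ML-2 cells, measured with a cell viability readout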
Description: SANGER: Inhibition of human ML-2 cell growth in a cell viability assay.

HuTu80 = assay type: functional, cell-based, Homo sapiens, HUTU-80; details: Homo sapiens, HuTu80;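 also: growth inhibition of HuTu80 human cells, determined with a cell viability readout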
Description: SANGER: Inhibition of human HUTU-80 cell growth in a cell viability assay.

CW-2 = assay type: functional, cell-based, Homo sapiens; details: Homo sapiens, CW-2;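 also: growth inhibition of CW-2 cells, read out by a cell viability assay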
Description: SANGER: Inhibition of human CW-2 cell growth in a cell viability assay.

HCC1187 = assay type: functional, cell-based, Homo sapiens; details: Homo sapiens, HCC1187;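 also: growth inhibition of HCC1187 cells, read out with a cell viability assay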
Description: SANGER: Inhibition of human HCC1187 cell growth in a cell viability assay.

ONS-76 = assay type: functional, cell-based, Homo sapiens; details: Homo sapiens, ONS-76;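 also: growth inhibition of human ONS-76 cells, read out with a cell viability assay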
Description: SANGER: Inhibition of human ONS-76 cell growth in a cell viability assay.

KY821 = assay type: functional, cell-based, Homo sapiens; details: Homo sapiens, KY821;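 also: growth inhibition of human KY821 cells, read out by a cell viability assay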
Description: SANGER: Inhibition of human KY821 cell growth in a cell viability assay.

RCC10RGB = assay type: functional, cell-based, Homo sapiens; details: Homo sapiens, RCC10RGB;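 also: growth inhibition of human RCC10RGB cells, read out by a cell viability assay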
Description: SANGER: Inhibition of human RCC10RGB cell growth in a cell viability assay.

JAR = assay type: functional, cell-based, Homo sapiens; details: Homo sapiens, JAR;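 also: growth inhibition of human JAR cells determined with a cell viability assay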
Description: SANGER: Inhibition of human JAR cell growth in a cell viability assay.

LNCaP-Clone-FGC = assay type: functional, cell-based, Homo sapiens; details: Homo sapiens, LNCaP-Clone-FGC
Description: SANGER: Inhibition of human LNCaP-Clone-FGC cell growth in a cell viability assay.

MFM-223 = assay type: functional, cell-based, Homo sapiens; details: Homo sapiens, MFM-223
Description: SANGER: Inhibition of human MFM-223 cell growth in a cell viability assay.

NCI-H526 = assay type: functional, cell-based, Homo sapiens; details: Homo sapiens, NCI-H526;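 also: growth inhibition of the human NCI-H526 cell line, measured by a cell viability assay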
Description: SANGER: Inhibition of human NCI-H526 cell growth in a cell viability assay.

MOLT-16 = assay type: functional, cell-based, Homo sapiens; details: Homo sapiens, MOLT-16;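 also: growth inhibition of human MOLT-16 cells, read out with a cell viability assay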
Description: SANGER: Inhibition of human MOLT-16 cell growth in a cell viability assay.

TE-1 = assay type: functional, cell-based, Homo sapiens; details: Homo sapiens, TE-1;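 also: growth inhibition of the human TE-1 cell line, read out with a cell viability assay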
Description: SANGER: Inhibition of human TE-1 cell growth in a cell viability assay.

SK-NEP-1 = assay type: functional, cell-based, Homo sapiens; details: Homo sapiens, SK-NEP-1;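 also: growth inhibition of human SK-NEP-1 cells, read out by a cell viability assay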
Description: SANGER: Inhibition of human SK-NEP-1 cell growth in a cell viability assay.

J-RT3-T3-5 = assay type: functional, cell-based, Homo sapiens; details: Homo sapiens, J-RT3-T3-5;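 also: cell viability assay measuring growth inhibition of human J-RT3-T3-5 cells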
Description: SANGER: Inhibition of human J-RT3-T3-5 cell growth in a cell viability assay.

SK-N-FI = assay type: functional, cell-based, Homo sapiens; details: Homo sapiens, SK-N-FI;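 also: cell viability assay measuring growth inhibition of human SK-N-FI cells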
Description: SANGER: Inhibition of human SK-N-FI cell growth in a cell viability assay.

DMS-79 = assay type: functional, cell-based, Homo sapiens; details: Homo sapiens, DMS-79;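 also: growth inhibition measured with a cell viability assay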
Description: SANGER: Inhibition of human DMS-79 cell growth in a cell viability assay.

TE-6 = assay type: functional, cell-based, Homo sapiens; details: Homo sapiens, TE-6;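 also: growth inhibition of TE-6 cells, read out with a cell viability assay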
Description: SANGER: Inhibition of human TE-6 cell growth in a cell viability assay.

IST-MES1 = assay type: functional, cell-based, Homo sapiens; details: Homo sapiens, IST-MES1;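 also: growth inhibition of IST-MES1 cells, measured with a cell viability assay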
Description: SANGER: Inhibition of human IST-MES1 cell growth in a cell viability assay.

EW-11 = assay type: functional, cell-based, Homo sapiens; details: Homo sapiens, EW-11;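 also: growth inhibition of human EW-11 cells, measured with a cell viability assay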
Description: SANGER: Inhibition of human EW-11 cell growth in a cell viability assay.

D-247MG = assay type: functional, cell-based, Homo sapiens; details: Homo sapiens, D-247MG
Description: SANGER: Inhibition of human D-247MG cell growth in a cell viability assay.

LS-123 = assay type: functional, cell-based, Homo sapiens; details: Homo sapiens, LS-123
Description: SANGER: Inhibition of human LS-123 cell growth in a cell viability assay.

8-MG-BA = assay type: functional, cell-based, Homo sapiens; details: Homo sapiens, 8-MG-BA;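 also: growth inhibition of 8-MG-BA cells, read out with a cell viability assay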
Description: SANGER: Inhibition of human 8-MG-BA cell growth in a cell viability assay.

COLO-824 = assay type: functional, cell-based, Homo sapiens; details: Homo sapiens, COLO-824
Description: SANGER: Inhibition of human COLO-824 cell growth in a cell viability assay.

BE-13 = assay type: functional, cell-based, Homo sapiens; details: Homo sapiens, BE-13;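 also: growth inhibition of human BE-13 cells, measured with a cell viability assay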
Description: SANGER: Inhibition of human BE-13 cell growth in a cell viability assay.

KLE = assay type: functional, cell-based, Homo sapiens; details: Homo sapiens, KLE;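 also: growth inhibition of human KLE cells, read out with a cell viability assay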
Description: SANGER: Inhibition of human KLE cell growth in a cell viability assay.

C8166 = assay type: functional, cell-based, Homo sapiens; details: Homo sapiens, C8166;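 also: growth inhibition of human C8166 cells measured by a cell viability assay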
Description: SANGER: Inhibition of human C8166 cell growth in a cell viability assay.

SNU-5 = assay type: functional, cell-based, Homo sapiens; details: Homo sapiens, SNU-5;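 also: cell viability readout used to measure growth inhibition in human NCI-SNU-5 cells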
Description: SANGER: Inhibition of human NCI-SNU-5 cell growth in a cell viability assay.

NCI-N87 = assay type: functional, cell-based, Homo sapiens; details: Homo sapiens, NCI-N87;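 also: growth inhibition of human NCI-N87 cells, read out with a cell viability assay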
Description: SANGER: Inhibition of human NCI-N87 cell growth in a cell viability assay.

HAL-01 = assay type: functional, cell-based, Homo sapiens; details: Homo sapiens, HAL-01;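 also: growth inhibition of human HAL-01 cells, read out with a cell viability assay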
Description: SANGER: Inhibition of human HAL-01 cell growth in a cell viability assay.

BV-173 = assay type: functional, cell-based, Homo sapiens; details: Homo sapiens, BV-173
Description: SANGER: Inhibition of human BV-173 cell growth in a cell viability assay.

SNU-C2B = assay type: functional, cell-based, Homo sapiens; details: Homo sapiens, SNU-C2B;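 also: cell viability readout used to measure compound-driven suppression of SNU-C2B cell proliferation, IC50 marking half-maximal growth inhibition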
Description: SANGER: Inhibition of human SNU-C2B cell growth in a cell viability assay.

IA-LM = assay type: functional, cell-based, Homo sapiens; details: Homo sapiens, IA-LM;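 also: cell viability assay measuring growth inhibition of human IA-LM cells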
Description: SANGER: Inhibition of human IA-LM cell growth in a cell viability assay.

MEG-01 = assay type: functional, cell-based, Homo sapiens; details: Homo sapiens, MEG-01;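 also: growth inhibition of MEG-01 cells, read out by a cell viability assay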
Description: SANGER: Inhibition of human MEG-01 cell growth in a cell viability assay.

Measured: IC50

Cc1cn(-c2cc(NC(=O)c3ccc(C)c(Nc4nccc(-c5cccnc5)n4)c3)cc(C(F)(F)F)c2)cn1 [NILOTINIB]
8.28 nM: MEG-01
10.9 nM: BV-173
1270 nM: BE-13
> 2000 nM: all other assays above

N#Cc1c(O)c2c(-c3ccc(-c4ccccc4O)cc3)csc2[nH]c1=O
378 nM: J-RT3-T3-5
66.2 nM: C8166
211 nM: L-363
170 nM: KARPAS-45
395 nM: GOTO
944 nM: SNU-5
36.9 nM: NH-12
817 nM: KY821
185 nM: SK-NEP-1
269 nM: MEG-01
43.4 nM: ML-2
303 nM: COLO-684
468 nM: NCI-H526
328 nM: COLO-824
547 nM: LNCaP-Clone-FGC
61.9 nM: MOLT-16
> 1020 nM: all other assays above

CS(=O)(=O)c1ccc(C(=O)Nc2ccc(Cl)c(-c3ccccn3)c2)c(Cl)c1 [VISMODEGIB]
not listed: KY821
> 10000 nM: all other assays above
